Data taken from patent US5266698A, “Certain aryl and cycloalkyl fused imidazopyrazinediones; a new class of GABA brain receptor ligands” (Neurogen Corporation, priority 1992, dated 1993).

Key:
[1] = target: GABAa receptor (benzodiazepine receptor); test: GABAa receptor binding assay ([3H]-Flumazenil (RO15-1788) displacement, rat cortical tissue); details: rat cortical tissue homogenate; 0.5 nM 3H-RO15-1788; 30 min at 4° C., pH 7.4; nonspecific: 1.0 mM diazepam
Protocol: The pharmaceutical utility of compounds of this invention are indicated by the following assay for GABAa receptor activity.
Assays are carried out as described in Thomas and Tallman (J. Bio. Chem. 156: 9838-9842, J. Neurosci. 3:433-440, 1983). Rat cortical tissue is dissected and homogenized in 25 volumes (w/v) of 0.05M Tris HCl buffer (pH 7.4 at 4° C.). The tissue homogenate is centrifuged in the cold (4°) at 20,000×g for 20'. The supernatant is decanted and the pellet is rehomogenized in the same volume of buffer and again centrifuged at 20,000×g. The supernatant is decanted and the pellet is frozen at -20° C. overnight. The pellet is then thawed and rehomogenized in 25 volume (original wt/vol) of buffer and the procedure i carried out twice. The pellet is finally resuspended in 50 volumes (w/vol of 0.05M Tris HCl buffer (pH 7.4 at […]).
Incubations contain […] of tissue homogenate, […] of radioligand 0.5 nM (^3 H-RO15-1788 [^3 H-Flumazenil] specific activity 80 Ci/mmol), drug or blocker and buffer to a total volume of […]. Incubations are carried for 30 min at 4° C. then are rapidly filtered through GFB filters to separate free and bound ligand. Filters are washed twice and fresh 0.05M Tris HCl buffer (pH 7.4 at 4° C.) and counted in a liquid scintillation counter. 1.0 mM diazepam is added to some tubes to determine nonspecific binding. Data are collected in triplicate determinations, averaged and % inhibition of total specific binding is calculated. Total Specific Binding=Total-Nonspecific. In some cases, the amounts of unlabeled drugs is varied and total displacement curves of binding are carried out. Data are converted to a form for the calculation of IC50 and Hill Coefficient (nH).

[2] = tested on: GABA receptor; details: stereoisomers of bicuculline; Tallman et al., 1978, Nature, 274: 383-85; cited from earlier work

Structure (SMILES) | IC50 [1] [nM] | Block of enhancement of benzodiazepine binding by GABA agonists [2]
O=c1c2c[nH]c3cccnc3n-2c(=O)n1-c1ccccc1 [Compound 1, 2-Phenyl-imidazo[1,5,a]pyrido[3,2-e]pyrazine-1,3(2H,5H)-dione] | 10 | 
CCOc1ccc(-n2c(=O)c3c[nH]c4cccnc4n-3c2=O)cc1 [Compound 8, 2-(4-Ethoxyphenyl)-imidazo[1,5,a]pyrido[3,2-e]pyrazine-2,3(2H,5H)-dione] | 20 | 
CN1CCc2cc3c(cc2C1C1OC(=O)c2c1ccc1c2OCO1)OCO3 (single isomer, unassigned; (+)) [(+) bicuculline] |  | blocked
CN1CCc2cc3c(cc2C1C1OC(=O)c2c1ccc1c2OCO1)OCO3 (single isomer, unassigned; (-)) [(-) bicuculline] |  | much less active
COc1ccc(-n2c(=O)c3c[nH]c4cccnc4n-3c2=O)cc1 [Compound 5, 2-(4-Methoxyphenyl)-imidazo[1,5,a]pyrido[3,2-e]pyrazine-2,3(2H,5H)-dione] | 9 | 
